Source: publication PMC2923838 (Chemical research in toxicology, 2009)

Biological target: D-amino acid oxidase (DAAO) (Sus scrofa, UniProt P00371)
Assay: […] benzoate with porcine DAAO and D-Trp in […] cells
Type: cell-based
Conditions: read-out: % attenuation at 20 mM

D-amino acid oxidase (DAAO), sequence (P00371 whole entry): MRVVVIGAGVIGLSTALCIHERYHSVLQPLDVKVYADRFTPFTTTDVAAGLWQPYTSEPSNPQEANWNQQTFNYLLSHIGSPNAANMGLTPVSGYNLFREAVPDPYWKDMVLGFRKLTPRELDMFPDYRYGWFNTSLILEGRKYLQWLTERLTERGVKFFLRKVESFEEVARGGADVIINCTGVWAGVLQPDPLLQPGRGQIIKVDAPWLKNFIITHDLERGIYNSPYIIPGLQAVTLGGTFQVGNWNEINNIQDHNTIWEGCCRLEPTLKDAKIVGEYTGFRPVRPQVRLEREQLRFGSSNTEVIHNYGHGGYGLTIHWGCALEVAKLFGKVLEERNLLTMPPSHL

Question: With `O=C(O)c1ccccc1` [sodium benzoate] as the compound, how does the inhibition at 20000 µM read?
Answer: 76%
